Entries after “also recorded” stand apart in the source; their conditions may differ. Ends that are not written are not given here.
Tests used:
[1] = test system: TRPV3-EGFP; experiment: whole-cell patch clamp recordings, HEK293T cells transiently transfected with TRPV3-EGFP; type: cell-based, Mouse; conditions: 100 μM 2APB
Source text: (§1) Cloning of TRPV3, TRPV1 and P2X2 into the EGFP-cc and EGFP-barstar vectors. The multiple cloning site (MCS) 3′ of the EGFP-C1 vector is not affected by the heptad repeat or barstar insertion described above, i.e., the restriction sites at the 3 prime end of EGFP are identical to the original EGFP-C1 clone. This MCS was used to clone each of three different ion channel subunits in-frame with the EGFP-heptad repeat module or EGFP-barstar module that had been inserted into the EGFP-C1 vector. Mouse TRPV3 cDNA was amplified either from total mouse cDNA or from plasmids containing the appropriate subunit sequence by PCR using the following primers: […]
(§2) Transient transfection of COS and HEK cells. COS or HEK cells were transfected using Lipofectamine 2000 (Invitrogen) according to the manufacture's protocol. In brief, 2 μg of the respective DNA plasmid were incubated for 30 min with 6 μl of Lipofectamine in 200 μl of Optimem medium (Gibco) at room temperature. Cells were incubated with the DNA-Lipofectamine complex for 3 h at 37 degrees Celsius in 500 μl Optimem medium. Afterwards the medium was replaced with DMEM containing 10% FCS. Cells were assayed for expression and activity of the engineered ion channels 24-48 h after transfection.
(§3) Characterization of functional activity of engineered ion channel subunits. […]

[2] = test system: TRPV3-EGFP-cc; experiment: whole-cell patch clamp recordings, HEK293T cells transiently transfected with TRPV3-EGFP-cc; type: cell-based, Mouse; conditions: 100 μM 2APB
Source text: as §1, §2, §3

[3] = test system: COS cells; experiment: FRET-based calcium sensing inside living COS cells (quantum dots + Calcium Crimson); type: cell-based; conditions: 405 nm laser; COS cells with internalized quantum dots and Calcium Crimson
Experimental: Quantum dot nanoparticles with an absorption peak at ˜405 nm and an emission peak at ˜580 nm (“Birch Yellow, Type 2”, Evident Corp.) were internalized by COS cells that had been previously loaded with a calcium-sensitive dye with absorption ˜580 nm, emission ˜620 nm (Calcium Crimson; Invitrogen N. C-3018). Dye loading was performed according to the directions of the manufacturer, and electroporation was used to enhance nanoparticle uptake. Live cells were illuminated with a 405 nm laser and emission from the sample was collected through a narrow bandgap filter centered around 620 nm. […] Since the calcium-sensitive dye cannot be excited by the 405 nm laser, their activation is due to FRET from the nanoparticles. The image is a snapshot from a movie taken at mid-plane section of a cell via confocal microscopy.

[4] = biological target: complementary peptides EIAALEK-EIAALEK-EIAALEK / KIAALKE-KIAALKE-KIAALKE; conditions: heterodimer (78); read-out: dissociation constant; cited from earlier work
[5] = test system: TRPV3-EGFP-cc; experiment: pull-down of engineered ion channel subunit TRPV3-EGFP-cc from cell lysate by functionalized nanoparticles, Western blot; type: binding, Mouse
Experimental: Nanoparticle synthesis and conjugation. These were performed as described in the previous example.
Pull-down experiments. These were performed essentially as described in the previous example except that (i) two different ratios of peptides/nanoparticle (10 μM or 100 μM peptide) were used to test their effect on binding ability; and (ii) lysates were made from cells that expressed engineered ion channel subunits TRPV3-EGFP-cc and TRPV3-EGFP, which are described in Example 6.

[6] = test system: EGFP-cc; experiment: pull-down of EGFP-cc from cell lysate by functionalized nanoparticles, Western blot; type: binding; conditions: for pull-down / binding of EGFP-cc: lysate of cells expressing EGFP-cc, anti-EGFP Western blot
Source text: Nanoparticle synthesis and conjugation. Dye-doped silica nanoparticles containing the fluorescent dye tris (2,2′-bipyridine) dichlororuthenium (II) hexahydrate) (Ru(bpy)) were synthesized following the reverse microemulsion procedure described by Tan and coworkers (35). These particles are approximately 40 nm in diameter and can be dispersed in de-ionized water. To impart biocompatibility (stability in PBS and other physiological buffers), particles were coated with bovine serum albumin (BSA) by mixing the nanoparticles in aqueous solution with an equal volume of freshly prepared BSA solution (1% weight in water). The mixture was incubated at room temperature for 1 h, after which it was brought to a standard PBS concentration by addition of an appropriate amount of concentrated PBS solution (10× PBS) and left standing overnight at room temperature. Excess BSA was then removed by repeated cycles of centrifugation (12 min at 9,500 rpm), removal of the supernatant and resuspension in PBS (a step involving bath sonication for a few minutes).
Conjugation of the nanoparticles to the recognition domain peptide CGG-(KVSALKE)3, (SEQ ID NO: 44) which contains a three amino acid spacer (CGG) followed by three copies of the KVSALKE (SEQ ID NO: 1) heptad sequence (cc, custom synthesized by the MIT biopolymer lab) was achieved using commercial crosslinking chemistry. Amine groups on the surface of BSA-coated nanoparticles (there are 35 lysine groups accessible at the surface of each BSA molecule) were activated by transferring the nanoparticles to a solution of 10 μM or 100 μM freshly prepared MBS (an amine-to-thiol crosslinker, available from Pierce Biotechnology) in PBS. After 20 min incubation, nanoparticles were washed by centrifugation and resuspension in a conjugation buffer (PBS at pH 7 and 1 mM EDTA). Since the recognition peptide contains a cysteine (chosen for conjugation), reduction of possible disulfide bonds was performed (using TCEP reducing gel, Pierce Biotechnology) before addition to the activated nanoparticles. Conjugation was completed by adding the reduced peptide at a concentration of 10 μM or 100 μM to nanoparticles activated with MBS at the same respective concentrations. After peptide addition, nanoparticles were incubated overnight in a gently rotating tube at 4° C., after which they were washed 3 times in PBS.
HEK 293T cells were transiently transfected with a construct encoding either EGFP or the EGFP-cc construct containing (EVSALEK)4 (SEQ ID NO: 4) fused to the N-terminus of EGFP as described in Example 6. 2×10^6 cells were lysed in 200 μl Lysis buffer (PBS, pH7.4 with 1% Triton-X100) and afterwards diluted with 800 μl PBS to obtain 1 ml of cell lysate with 0.2% Triton-X100. Pull-down experiments were performed by incubating 100 μL of nanoparticles with 900 μL of cell lysate for one hour at 4° C. (with gentle rotation). Particles were then centrifuged (12 min at 9,500 rpm) and the supernatant removed. After brief washing of the pellet with 100 μL of PBS, particles were resuspended by sonication in 50 μL of PBS and the resulting solution analyzed by Western blot using antibodies to EGFP (Covance) according to standard methods.

NCCOB(c1ccccc1)c1ccccc1 [2APB]
reversibility of the 2APB effect [1]: quickly washed out
response of cells to application of 2APB (whole-cell current) ([1]; voltage ramp −100 mV to +100 mV, compared with TRPV3-cc): responded similarly
reversibility of the 2APB effect [2]: quickly washed out
response of cells to application of 2APB (whole-cell current) ([2]; voltage ramp −100 mV to +100 mV, compared with TRPV3-EGFP): responded similarly

C/C=C(/C)C(=O)O[C@H]1C(C)=C2[C@H]([C@@H]1OC(=O)CCCCCCC)[C@@](C)(OC(C)=O)C[C@H](OC(=O)CCC)[C@@]1(O)[C@H]2OC(=O)[C@@]1(C)O [thapsigargin]
emission at 620 nm upon addition of compound (calcium signal by FRET) [3]: flashes of light (orange dots) were detected only in the immediate vicinity of the nanoparticles

EIAALEK-EIAALEK-EIAALEK (SEQ ID NO: 5) and KIAALKE-KIAALKE-KIAALKE (SEQ ID NO: 6) (chain 1 EIAALEKEIAALEKEIAALEK; chain 2 KIAALKEKIAALKEKIAALKE; Complementary peptides) [IAAL-E3/K3 coiled-coil]
Kd [4]: 70 nM

NP-cc: BSA-coated Ru(bpy) dye-doped silica nanoparticles (~40 nm) conjugated to recognition peptide CGG-(KVSALKE)3 (SEQ ID NO: 44) (CGGKVSALKEKVSALKEKVSALKE; also: Cys crosslinked to BSA-coated Ru(bpy) dye-doped silica nanoparticles)
binding to ion channel subunit containing the complementary target domain ([5]; lysate of cells expressing TRPV3-EGFP-cc, anti-EGFP Western blot): confirm the binding
pull-down of TRPV3-EGFP-cc ([5]; nanoparticles conjugated with 10 μM peptide (lane 6)): only a small amount of pull-down
dependence of amount of EGFP-cc pulled down on amount of peptide conjugated ([6]; different amounts of CGG-(KVSALKE)3 conjugated, data not shown): proportional to the number of heptad repeat peptides conjugated to the nanoparticles
pull-down / binding of EGFP-cc [6]: only NP-cc can pull down EGFP-cc; also recorded: confirm the binding
pull-down / binding of EGFP-cc ([6]; listed as functionalized nanoparticles): strong band at the position expected for EGFP-cc
pull-down of EGFP-cc ([6]; nanoparticles conjugated with 10 μm peptide): did not result in detectable pull-down
pull-down of EGFP-cc ([6]; nanoparticles conjugated with 100 μm peptide): presence of EGFP-cc

Reference: patent publication US20060148104A1, “Detection of ion channel or receptor activity” (Massachusetts Institute of Technology, priority 2004, published 2006)
